Source: paper PMC8020795 (Proceedings of the National Academy of Sciences of the …, 2021)

Columns and labels:
[1] = Non-GLP 14-d repeated dose toxicology; assay type: in vivo
CXCR4+CD34+ stem cells = assay: CXCR4+CD34+ stem cell mobilization; assay type: in vivo, C57BL/6 mice; conditions: 6 mg/kg SC, peripheral blood 2 h after dosing
Procedure: Cy7, and CD206-APC (BioLegend, San Diego, CA) antibodies, as previously described.[8] Flow cytometry data were acquired on a BD FACSAria III flow cytometer and analyzed with […]
C57BL/6 male mice were treated with potential CXCR4 antagonist individually by subcutaneous injection, and then blood samples containing mobilized stem/progenitor cells were collected 2 hours later. After labeled with specific antibodies, including APC-conjugated anti-CXCR4 (clone 2B11; eBioscience) and FITC-conjugated anti-CD34 (clone RAM34; eBioscience), cells were washed, characterized and quantified by flow cytometer (Guava Technologies, Hayward, CA, USA). Each data point included at least 60,000 events for analysis of other cell types.
Western blotting was conducted by following standard procedures. HCA-1 or JHH-7 cells (10^5 cells per well) were seeded in 12-well plates (Costar, IL), incubated for 12 h and […]
Reverse transcription quantitative real time PCR
Total RNA was extracted from HCA-1 cells using the RNeasy Mini Kit (Qiagen, CA, USA). cDNAs were synthesized using the High-Capicity cDNA Reverse Transcription Kit (Applied Biosystems, CA, USA). Primers specific for Slug, Fn1, Cdh2, Vim, Foxc2, Zeb1, Zeb2, Twist1, Cdh1, Mta3, Cldn3, Cldn5, β-actin and GAPDH were used, and relative gene expression was determined using Real-Time SYBR Green PCR Master Mix (Applied Biosystems, CA, USA) on a QPCR System. […]

HCA-1 cells = assay: CXCL12-induced HCA-1 chemotaxis (invasion assay); assay type: cell-based, murine; conditions: concentration up to 1 µM
Procedure: [3-(2-Aminomethyl-oxazol-4-yl)-propyl]-[3-(tert-butoxycarbonyl-cyclohexyl-amino)- propyl]-carbamic acid tert-butyl ester (Linker 1). A mixture of L1-6 (10.35 g, 16.5 mmol) and 10% Pd/C (4.66 g) in iso-propanol (310 mL) was stirred under H2(g) at 50 °C for 15 h.
The resulting mixture was filtered, and the filtrate was concentrated to afford Linker 1 (7.23 g, […]
Wound healing and invasion assays
Cell migration ability was measured by wound healing assay. HCA-1 cells (5 × 10^5 cells per well) were seeded onto 12-well plates and incubated overnight. When the cell confluence exceeded 90%, scratch wounds were made by scraping a straight line in the middle of the cell layer using the tip of a 1000 µL pipette. After washing the cells with PBS, the cells were incubated in serum-free medium under different treatment conditions (control, 100 ng/mL CXCL12, and 10 µM BPRCX807 with 100 ng/mL CXCL12). Then, 3-4 fields (40×) of each group were randomly chosen and observed by a microscope (IX83, Olympus, Japan) at time points of 0 h, 24h, 48 h and 72 h. For the invasion assay, HCA-1 cells were suspended in RPMI 1640 containing 0.5% FBS and then preincubated with the indicated concentrations of compounds for 10 min at 37 °C. […] After 17.5 h of incubation at 37 °C, the cells in both chambers of the inserts were measured with a CellTiter-Glo Luminescent Cell Viability Assay (Promega, Wisconsin). […]

in vivo = conditions: ICR, mouse, sc

SMILES: Cc1cc(NC2CCN(C(=O)CCNCC(=O)O)CC2)nc(NCc2nc(CCCNCCCNC3CCCCC3)co2)n1 [BPRCX807]
- Survival in repeated dose toxicology ([1]; SD rats, 50 mg/kg/d, 14 d): all animals survived up to study termination
- Non-GLP 14-d repeated dose, overall finding ([1]; rat, in vivo): Clean
- Hematological and biochemical data vs vehicle ([1]; rat, in vivo, 50 mg/kg/day): no significant difference
- Major organs (heart, lung, kidney, liver) vs vehicle ([1]; rat, in vivo, 50 mg/kg/day): normal in size, weight, and color
- Adrenal Glands/B.W. ([1]; rat, in vivo, sc, 50 mg/kg): 0.0002 ± 0.00003
- Albumin (ALB) ([1]; rat, in vivo, sc, 50 mg/kg): 4.0 ± 0.2 g/dL
- Alkaline Phosphatase (ALP) ([1]; rat, in vivo, sc, 50 mg/kg): 901 ± 60 U/L
- Basophil ([1]; rat, in vivo, sc, 50 mg/kg): 0.002 ± 0.004 103/µL
- Basophil % ([1]; rat, in vivo, sc, 50 mg/kg): 0.01 ± 0.02%
- Blood Urea Nitrogen (BUN) ([1]; rat, in vivo, sc, 50 mg/kg): 16.7 ± 2.1 mg/dL
- Creatinine (CRE) ([1]; rat, in vivo, sc, 50 mg/kg): 0.22 ± 0.04 mg/dL
- Eosinophil ([1]; rat, in vivo, sc, 50 mg/kg): 0.01 ± 0.01 103/µL
- Eosinophil % ([1]; rat, in vivo, sc, 50 mg/kg): 0.11 ± 0.05%
- Erythrocyte ([1]; rat, in vivo, sc, 50 mg/kg): 6.33 ± 0.45 106/µL
- Glutamate oxaloacetate transaminase (GOT) ([1]; rat, in vivo, sc, 50 mg/kg): 67 ± 7 U/L
- Glutamate pyruvate transaminase (GPT) ([1]; rat, in vivo, sc, 50 mg/kg): 35 ± 5 U/L
- Heart/B.W. ([1]; rat, in vivo, sc, 50 mg/kg): 0.0038 ± 0.0004
- Hematocrit ([1]; rat, in vivo, sc, 50 mg/kg): 41.4 ± 3.5
- Hemoglobin ([1]; rat, in vivo, sc, 50 mg/kg): 13.8 ± 0.9 g/dL
- Kidneys/B.W. ([1]; rat, in vivo, sc, 50 mg/kg): 0.0095 ± 0.0011
- Lactate dehydrogenase (LDH) ([1]; rat, in vivo, sc, 50 mg/kg): 272 ± 132 U/L
- Liver/B.W. ([1]; rat, in vivo, sc, 50 mg/kg): 0.0460 ± 0.0044
- Lung/B.W. ([1]; rat, in vivo, sc, 50 mg/kg): 0.0054 ± 0.0005
- Lymphocyte ([1]; rat, in vivo, sc, 50 mg/kg): 6.36 ± 3.70 103/µL
- Lymphocyte % ([1]; rat, in vivo, sc, 50 mg/kg): 58.95 ± 6.42%
- Mean corpuscle hemoglobin ([1]; rat, in vivo, sc, 50 mg/kg): 21.8 ± 1.0 pg
- Mean corpuscle volume ([1]; rat, in vivo, sc, 50 mg/kg): 65.4 ± 2.7 fL
- Mean platelet volume ([1]; rat, in vivo, sc, 50 mg/kg): 6.4 ± 0.1 fL
- Monocyte ([1]; rat, in vivo, sc, 50 mg/kg): 0.63 ± 0.36 103/µL
- Monocyte % ([1]; rat, in vivo, sc, 50 mg/kg): 5.82 ± 1.11%
- Neutrophil ([1]; rat, in vivo, sc, 50 mg/kg): 3.75 ± 2.13 103/µL
- Neutrophil % ([1]; rat, in vivo, sc, 50 mg/kg): 35.11 ± 5.51%
- Platelet ([1]; rat, in vivo, sc, 50 mg/kg): 1327± 239 103/µL
- Spleen/B.W. ([1]; rat, in vivo, sc, 50 mg/kg): 0.0021 ± 0.0004
- Testes/B.W. ([1]; rat, in vivo, sc, 50 mg/kg): 0.0094 ± 0.0006
- Thymus/B.W. ([1]; rat, in vivo, sc, 50 mg/kg): 0.0021 ± 0.0006
- White blood cells ([1]; rat, in vivo, sc, 50 mg/kg): 10.75 ± 6.09 103/µL
- Number of CXCR4+CD34+ stem cells mobilized, relative to AMD3100 (CXCR4+CD34+ stem cells): roughly 1.5 fold
- CXCL12-induced cell migration (HCA-1 cells): significant decrease
- MTD (in vivo): 75 mg/kg
